Measured values as given in patent publication US5241047A, “Synthetic peptides and mixtures thereof for detecting HIV antibodies” (BioChem Pharma Inc., priority 1990, dated 1993).
Positions of bridges follow the written chain, without caps; N, C: chain ends. Residues, ends and D or L forms follow the SMILES beside them.

Legend:
HIV antibodies = experiment: ELISA with peptide-coated wells, samples negative for HIV antibodies or not described; assay type: binding, human; settings: Test 350
Experimental: (§1) A preferred convenient and classical technique for the determination of antibodies against HIV-1 or HIV-2 using a peptide or a peptide mixture of the present invention is an enzyme-linked immunosorbent assay (ELISA). In this assay, for example, a peptide, peptide mixture or combination of the present invention is adsorbed onto, or covalently coupled to, the wells of a microtiter plate. The wells are then treated with the sera or analyte to be tested. After washing, antihuman IgG or antihuman IgM labeled with peroxidase is added to the wells. The determination of the peroxidase is performed with a corresponding substrate, e.g., with o-phenylene diamine. Without departing from the usefulness of the illustrative assay, the peroxidase can be exchanged by another label, e.g., by a radioactive, fluorescence chemiluminescence or infrared emitting label.
(§2) O.D. Values were obtained at 450 nm and the blank values measured with the sample dilution buffer were not subtracted.
(§3) Samples NEIA-2*2, BBI-1-162 to 168, 87B140, 87L139, 87V103 are all negative for HIV antibodies. Sample LSPQ-S9-1 is an early seroconverter (HIV-1). The series labeled CAP-113 to CAP-120 corresponds to a pool of seven HIV-1 positive plasma samples serially diluted with an HIV-negative plasma. CAP-113 is the pool diluted 50-fold with the HIV-negative plasma; CAP-114 is diluted 100-fold; CAP-115 is diluted 200-fold; etc. Similarly, the series labeled CAP-222 to CAP-230 corresponds to a pool of seven HIV-2 confirmed seropositive plasma samples. CAP-222 is diluted by 50 with an HIV-negative plasma; CAP-223 by 100; etc. Before the assay is done, each sample, including the CAP-series, is further diluted by 50 with the sample dilution buffer. In these tests, the cut-off for seropositivity is defined as the sum of the O.D. value for sample NEIA-2*2 plus 0.100.
(§4) Each well of the microtiter plate is saturated with 100 μl of a solution containing a peptide or mixture of peptides (5 μg/ml) and left overnight. The wells are emptied and washed twice with a washing buffer (Tris, 0.043M; NaCl, 0.5M; thimerosal, 0.01% w/v; Tween 20, 0.05% v/v; pH 7.4). The wells are then saturated with 0.35 ml of washing buffer for 1 hr. at 37° C. and washed once with the same buffer. Serum samples to be analyzed are diluted with specimen buffer (washing buffer plus casein, 0.05% w/v). The wells are rinsed with washing buffer prior to the addition of the diluted serum sample (0.1 ml). These are left to incubate for 1 hr. at room temperature. The wells are then emptied, washed twice rapidly and then once for two minutes with washing buffer. […] The wells are then emptied and washed twice rapidly with washing buffer and then five times in which the buffer was in contact with the well 2 minutes per washing. The substrate solution (3,3',5,5'-tetramethylbenzidine, 8 mg per ml of DMSO) is diluted with 100 volumes 0.1M citrate-acetate buffer, pH 5.6 containing 0.1% v/v of 30% H2 O2 and added to each well (0.1 ml per well). After 10 minutes the contents of each well is treated with 0.1 ml 2N H2 SO4 and the optical density read at 450 nm. All determinations are done in duplicate.
Peptide cocktails were prepared by mixing together equal volumes of two peptide solutions each at 10 ug/ml. One cocktail used peptides BCH-87c and BCH-202c and the other cocktail was a mixture of BCH-87ck and BCH-202ck. Each cocktail was used to coat two series of plates as described earlier.

HIV-1 antibodies = experiment: ELISA with peptide-coated wells, HIV-1 antibody positive samples (diluted plasma pool, seroconversion samples); assay type: binding, human; settings: for O.D. 450 nm: Test 350
Experimental: as §1, §2, §3
as §4, with “duplicate. […]” for “duplicate.”

CC[C@H](C)[C@H](NC(=O)[C@H](CC(C)C)NC(=O)[C@H](CCCCN)NC(=O)CNC(=O)[C@H](CO)NC(=O)[C@H](C)NC(=O)[C@H](CC(N)=O)NC(=O)[C@H](Cc1c[nH]c2ccccc12)NC(=O)[C@@H]1CCCN1C(=O)[C@@H](NC(=O)[C@H](C)NC(=O)[C@@H](NC(=O)[C@@H](NC(=O)[C@@H]1CSSC[C@H](NC(=O)CNC(=O)[C@H](Cc2c[nH]c3ccccc23)NC(=O)[C@@H](NC(=O)CNC(=O)[C@H](CC(C)C)NC(=O)[C@H](CC(C)C)NC(=O)[C@H](CCC(N)=O)NC(=O)[C@H](CCC(N)=O)NC(=O)[C@H](CC(=O)O)NC(=O)[C@H](CCCCN)NC(=O)[C@H](CC(C)C)NC(=O)[C@H](Cc2ccc(O)cc2)NC(=O)[C@H](CCCNC(=N)N)NC(=O)[C@H](CCC(=O)O)NC(=O)[C@@H](NC(=O)[C@H](C)NC(=O)[C@H](CC(C)C)NC(=O)[C@@H](NC(=O)[C@@H](N)CCCCN)[C@@H](C)CC)C(C)C)[C@@H](C)CC)C(=O)N[C@@H](CO)C(=O)NCC(=O)N[C@@H](CCCCN)C(=O)N[C@@H](CC(C)C)C(=O)N[C@@H]([C@@H](C)CC)C(=O)N1)[C@@H](C)O)[C@@H](C)O)C(C)C)C(=O)O [BCH-408] (H-KILAVERYLKDQQLLGIWGCSGKLICTTAVPWNASGKLI-OH; disulfide 20-26)
O.D. 450 nm (HIV antibodies; sample 2-87-L-139 (negative for HIV antibodies)): 0.025 | O.D. 450 nm (HIV antibodies; sample 2-87-V-103 (negative for HIV antibodies)): 0.014 | O.D. 450 nm (HIV antibodies; sample 89-D-307 (not described)): 0.029 | O.D. 450 nm (HIV antibodies; sample NEIA-2*2 (negative for HIV antibodies)): 0.035 | sensitivity compared to the other peptides (HIV-1 antibodies; Table 3, versus BCH-87c, BCH-87ck, BCH-266 at progressively higher dilutions): superior sensitivity | O.D. 450 nm (HIV-1 antibodies; sample CAP-10 (progressively higher dilutions)): > 2.8 | O.D. 450 nm (HIV-1 antibodies; sample CAP-11 (progressively higher dilutions)): > 2.8 | O.D. 450 nm (HIV-1 antibodies; sample CAP-12 (progressively higher dilutions)): > 2.8 | O.D. 450 nm (HIV-1 antibodies; sample CAP-13 (progressively higher dilutions)): 2.319 | O.D. 450 nm (HIV-1 antibodies; sample CAP-14 (progressively higher dilutions)): 1.433 | O.D. 450 nm (HIV-1 antibodies; sample CAP-15 (progressively higher dilutions)): 0.835 | O.D. 450 nm (HIV-1 antibodies; sample CAP-16 (progressively higher dilutions)): 0.455 | O.D. 450 nm (HIV-1 antibodies; sample CAP-17 (progressively higher dilutions)): 0.244 | O.D. 450 nm (HIV-1 antibodies; sample CAP-18 (progressively higher dilutions)): 0.156 | O.D. 450 nm (HIV-1 antibodies; sample CAP-19 (progressively higher dilutions)): 0.102
